“And” between values parts separate entries of the source, which are not always exact repeats. Equal entries are not always repeated. Toxic doses and inconclusive results are not listed. Rule for the calls: active = survival T/C of 150% or more; inactive = T/C below 125% in these data.
Tested on: CD2F1 mice, L1210 leukemia ip, survival T/C
Test: NCI In Vivo Anticancer Drug Screen. Data for tumor model L1210 Leukemia (intraperitoneal) in CD2F1 (CDF1) mice
Conditions: higher = longer survival
Outline: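 Ratio T/C, where T is the treated-group value and C the vehicle-dosed control value, from mice implanted with a transplantable tumor.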

[1] = endpoint: mean survival time, dose: 100.0 mg/kg/injection, schedule: Q04DX003 (ip), vehicle: saline with Tween-80
[2] = endpoint: mean survival time, dose: 200.0 mg/kg/injection, schedule: Q04DX003 (ip), vehicle: saline with Tween-80
[3] = endpoint: mean survival time, dose: 400.0 mg/kg/injection, schedule: Q04DX003 (ip), vehicle: saline with Tween-80
[4] = endpoint: mean survival time, dose: 100.0 mg/kg/injection, schedule: Q01DX001 (ip), vehicle: saline
[5] = endpoint: mean survival time, dose: 200.0 mg/kg/injection, schedule: Q01DX001 (ip), vehicle: saline
[6] = endpoint: mean survival time, dose: 400.0 mg/kg/injection, schedule: Q01DX001 (ip), vehicle: saline
[7] = endpoint: mean survival time, dose: 100.0 mg/kg/injection, schedule: Q01DX009 (ip), vehicle: saline with Tween-80
[8] = endpoint: mean survival time, dose: 200.0 mg/kg/injection, schedule: Q01DX009 (ip), vehicle: saline with Tween-80
[9] = endpoint: mean survival time, dose: 400.0 mg/kg/injection, schedule: Q01DX009 (ip), vehicle: saline with Tween-80
[10] = endpoint: mean survival time, dose: 75.0 mg/kg/injection, schedule: Q01DX001 (ip), vehicle: saline
[11] = endpoint: mean survival time, dose: 25.0 mg/kg/injection, schedule: Q01DX009 (ip), vehicle: saline with Tween-80
[12] = endpoint: mean survival time, dose: 50.0 mg/kg/injection, schedule: Q01DX009 (ip), vehicle: saline with Tween-80

Measured: T/C

CC1(C)/C(=N/Nc2ccc([N+](=O)[O-])cc2[N+](=O)[O-])CCc2ccccc21
inactive: endpoint: mean survival time, dose: 12.5 mg/kg/injection, schedule: Q01DX009 (ip), vehicle: other 94 % of control | endpoint: mean survival time, dose: 25.0 mg/kg/injection, schedule: Q01DX009 (ip), vehicle: other 97 % of control | endpoint: mean survival time, dose: 50.0 mg/kg/injection, schedule: Q01DX009 (ip), vehicle: other 90 % of control | endpoint: mean survival time, dose: 100.0 mg/kg/injection, schedule: Q01DX009 (ip), vehicle: other 94 % of control | endpoint: mean survival time, dose: 200.0 mg/kg/injection, schedule: Q01DX009 (ip), vehicle: other 90 % of control

Cc1ccc2c(ccc3nc(N)nc(N)c32)c1
inactive: endpoint: mean survival time, dose: 5.0 mg/kg/injection, schedule: Q01DX001 (ip), vehicle: saline 100 % of control | endpoint: mean survival time, dose: 10.0 mg/kg/injection, schedule: Q01DX001 (ip), vehicle: saline 89 % of control | endpoint: mean survival time, dose: 20.0 mg/kg/injection, schedule: Q01DX001 (ip), vehicle: saline 95 % of control | endpoint: mean survival time, dose: 40.0 mg/kg/injection, schedule: Q01DX001 (ip), vehicle: saline 95 % of control

Clc1ccc(N=Cc2ccc3c(c2)OCO3)c(Cl)c1
inactive: endpoint: mean survival time, dose: 100.0 mg/kg/injection, schedule: Q01DX001 (ip), vehicle: Klucel (hydroxypropylcellulose) (HPC) 100 % of control | endpoint: mean survival time, dose: 200.0 mg/kg/injection, schedule: Q01DX001 (ip), vehicle: Klucel (hydroxypropylcellulose) (HPC) 96 % of control | endpoint: mean survival time, dose: 400.0 mg/kg/injection, schedule: Q01DX001 (ip), vehicle: Klucel (hydroxypropylcellulose) (HPC) 97 % of control

O=C1CSC(=S)N1/N=C/c1ccc(Cl)c(Cl)c1
inactive: endpoint: mean survival time, dose: 1.56 mg/kg/injection, schedule: Q01DX009 (ip), vehicle: saline with Tween-80 97 % of control | endpoint: mean survival time, dose: 3.13 mg/kg/injection, schedule: Q01DX009 (ip), vehicle: saline with Tween-80 100 % of control | endpoint: mean survival time, dose: 6.25 mg/kg/injection, schedule: Q01DX009 (ip), vehicle: saline with Tween-80 91 % of control | endpoint: mean survival time, dose: 6.25 mg/kg/injection, schedule: Q04DX003 (ip), vehicle: saline with Tween-80 100 % of control

CCCCCCCC(=O)O[C@H]1[C@H]2[C@@H](CC1(C)C)C(=O)[C@]13O[C@H]1C(=O)[C@]1(CO1)[C@]23C
inactive: endpoint: median survival time, dose: 1.25 mg/kg/injection, schedule: Q01DX009 (ip), vehicle: saline with Tween-80 101 % of control | endpoint: median survival time, dose: 2.5 mg/kg/injection, schedule: Q01DX009 (ip), vehicle: saline with Tween-80 104 % of control | endpoint: median survival time, dose: 5.0 mg/kg/injection, schedule: Q01DX009 (ip), vehicle: saline with Tween-80 104 % of control | endpoint: median survival time, dose: 10.0 mg/kg/injection, schedule: Q01DX009 (ip), vehicle: saline with Tween-80 107 % of control | endpoint: median survival time, dose: 20.0 mg/kg/injection, schedule: Q01DX009 (ip), vehicle: saline with Tween-80 107 % of control

NC(=O)c1cccnc1
inactive: endpoint: mean survival time, dose: 175.0 mg/kg/injection, schedule: Q04HX040 (ip), vehicle: water 109 % of control | endpoint: mean survival time, dose: 350.0 mg/kg/injection, schedule: Q04HX040 (ip), vehicle: water 103 % of control

CCOC(=O)CCl
inactive: endpoint: mean survival time, dose: 100.0 mg/kg/injection, schedule: Q04DX003 (ip), vehicle: other 95 % of control | endpoint: mean survival time, dose: 200.0 mg/kg/injection, schedule: Q04DX003 (ip), vehicle: other 90 % of control

S=C(Oc1ccc(Cl)cc1)Sc1ccc(Cl)cc1
inactive: endpoint: mean survival time, dose: 100.0 mg/kg/injection, schedule: Q04DX002 (ip), vehicle: Klucel (hydroxypropylcellulose) (HPC) 101 % of control | endpoint: mean survival time, dose: 200.0 mg/kg/injection, schedule: Q04DX002 (ip), vehicle: Klucel (hydroxypropylcellulose) (HPC) 89 % of control | endpoint: mean survival time, dose: 400.0 mg/kg/injection, schedule: Q04DX002 (ip), vehicle: Klucel (hydroxypropylcellulose) (HPC) 97 % of control

O=C(CCN1C(=O)c2ccccc2C1=O)c1ccc(O)cc1
inactive: [1] 93 % of control | [2] 98 % of control | [3] 92 % of control

Cn1ncc(C(=O)O)c1[N+](=O)[O-]
inactive: [4] 102 % of control | [5] 103 % of control | [6] 94 % of control

O=C(O)C1=NN(c2ccc(S(=O)(=O)O)cc2)C(=O)C1
inactive: [7] 96 % of control | [8] 92 % of control | [9] 92 % of control

CN=C(Nc1ccc(OC)c2ccccc12)SC
inactive: endpoint: mean survival time, dose: 100.0 mg/kg/injection, schedule: Q04DX003 (ip), vehicle: Klucel (hydroxypropylcellulose) (HPC) 89 % of control | endpoint: mean survival time, dose: 200.0 mg/kg/injection, schedule: Q04DX003 (ip), vehicle: Klucel (hydroxypropylcellulose) (HPC) 91 % of control

O=CC(CO)OC(C=O)n1cnc2c(=O)[nH]c(=O)[nH]c21 (stereo not drawn)
inactive: endpoint: mean survival time, dose: 12.5 mg/kg/injection, schedule: Q01DX005 (ip), vehicle: water 101 % of control | endpoint: mean survival time, dose: 25.0 mg/kg/injection, schedule: Q01DX005 (ip), vehicle: water 106 % of control | endpoint: mean survival time, dose: 50.0 mg/kg/injection, schedule: Q01DX005 (ip), vehicle: water 106 % of control | endpoint: mean survival time, dose: 100.0 mg/kg/injection, schedule: Q01DX005 (ip), vehicle: water 115 % of control

C=C1C(=O)O[C@@H]2/C=C(/C)[C@@]3(O)C=C[C@](C)(C[C@@H](OC(=O)/C(=C\C)COC(C)=O)[C@@H]12)O3
inactive: endpoint: mean survival time, dose: 6.0 mg/kg/injection, schedule: Q01DX009 (ip), vehicle: saline with Tween-80 88 % of control | endpoint: mean survival time, dose: 8.0 mg/kg/injection, schedule: Q01DX009 (ip), vehicle: saline with Tween-80 94 % of control | endpoint: mean survival time, dose: 12.0 mg/kg/injection, schedule: Q01DX009 (ip), vehicle: saline with Tween-80 94 % of control | endpoint: mean survival time, dose: 18.0 mg/kg/injection, schedule: Q01DX009 (ip), vehicle: saline with Tween-80 98 % of control | endpoint: mean survival time, dose: 27.0 mg/kg/injection, schedule: Q01DX009 (ip), vehicle: saline with Tween-80 93 % of control

O=S(=O)(O)O
inactive: endpoint: mean survival time, dose: 100.0 mg/kg/injection, schedule: Q01DX009 (ip), vehicle: saline sonified 100 % of control | [1] 96 % of control | endpoint: mean survival time, dose: 200.0 mg/kg/injection, schedule: Q01DX009 (ip), vehicle: saline sonified 97 % of control | endpoint: mean survival time, dose: 400.0 mg/kg/injection, schedule: Q01DX009 (ip), vehicle: saline sonified 97 % of control

COc1ccc(NC(=O)CCl)cc1
inactive: endpoint: mean survival time, dose: 25.0 mg/kg/injection, schedule: Q01DX009 (ip), vehicle: Klucel (hydroxypropylcellulose) (HPC) 96 % of control and 98 % of control | endpoint: mean survival time, dose: 50.0 mg/kg/injection, schedule: Q01DX009 (ip), vehicle: Klucel (hydroxypropylcellulose) (HPC) 96 % of control and 98 % of control | endpoint: mean survival time, dose: 100.0 mg/kg/injection, schedule: Q01DX009 (ip), vehicle: Klucel (hydroxypropylcellulose) (HPC) 96 % of control and 104 % of control

C[P+](c1ccc(F)cc1)(c1ccc(F)cc1)c1ccc(F)cc1
inactive: endpoint: mean survival time, dose: 25.0 mg/kg/injection, schedule: Q04DX002 (ip), vehicle: saline with Tween-80 100 % of control | endpoint: mean survival time, dose: 50.0 mg/kg/injection, schedule: Q04DX002 (ip), vehicle: saline with Tween-80 92 % of control

COc1ccccc1OC(=O)Nc1cc([N+](=O)[O-])ccc1C
inactive: [1] 89 % of control | [2] 97 % of control | [3] 87 % of control

CCN=c1cc2oc3cc(NCC)c(C)cc3c(-c3ccccc3C(=O)OCC)c-2cc1C
inactive: endpoint: mean survival time, dose: 2.5 mg/kg/injection, schedule: Q04DX003 (ip), vehicle: saline 101 % of control | endpoint: mean survival time, dose: 5.0 mg/kg/injection, schedule: Q04DX003 (ip), vehicle: saline 109 % of control | endpoint: mean survival time, dose: 10.0 mg/kg/injection, schedule: Q04DX003 (ip), vehicle: saline 90 % of control and 102 % of control

CC(C)N1CCc2cc3c(cc2C1)OCO3
inactive: [10] 100 % of control | [4] 100 % of control

O=C(NC(=O)c1ccccc1)Nc1ccccc1
inactive: [7] 96 % of control | [1] 92 % of control | [2] 90 % of control | [9] 94 % of control | [3] 90 % of control

C=CCNC(=O)C[n+]1cccc(C(=O)Nc2ccccc2)c1
inactive: [1] 97 % of control

C#CC[N+](CC)(CC)CCNC(=O)CCCCCCCCCCCCCCC
inactive: [10] 102 % of control

C=CCC(Cl)(C(=O)OC)C(=O)OC
inactive: [7] 108 % of control | [8] 108 % of control | [9] 106 % of control

O=C(Nc1ccc(Cl)c(Cl)c1)Nc1cc(Cl)ccc1Sc1ccc(Cl)cc1S(=O)(=O)O
inactive: [11] 100 % of control | [12] 100 % of control | [7] 105 % of control | [1] 101 % of control

CC(O)CNC1CCCCC1 (stereo not drawn)
inactive: [11] 97 % of control | [12] 97 % of control | [7] 97 % of control

O=C(/C=C/c1ccco1)c1ccc2ccccc2c1
inactive: [4] 102 % of control | [5] 94 % of control | [6] 94 % of control

CC(C)(C)OC(=O)NC(CCC(=O)O)C(=O)OC(C)(C)C (stereo not drawn)
inactive: [7] 102 % of control | [8] 93 % of control | [9] 92 % of control

— PubChem BioAssay AID256 (DTP/NCI, 2004)
